# From patent US20240150755A1, “MODULATING REGULATORY T CELL FUNCTION IN AUTOIMMUNE DISEASE AND CANCER” (Salk Institute for Biological Studies, priority 2021, published 2024)
# How the values were obtained:
# [1] = test system: Foxp3-bound sites; test: Foxp3 ChIP-seq in Treg cells; type: cell-based, mouse
# Description: For large scale Treg culture, Tregs were first expanded in Rosa-Cas9/Foxp3^Thy1.1 mice by injecting IL-2:IL-2 antibody immune complex according protocol described in Webster et. al (J Exp Med 206, 751-760, 2009). Spleen and lymph node Treg cells were labeled with PE-conjugated Thy1.1 antibody and isolated by magnetic selection using anti-PE microbeads (Mitenyl #130-048-801). All isolated Treg cells were activated by plate bound anti-CD3 and anti-CD28 antibodies and cultured with X-VIVO® 20 media (LONZA #04-448Q) supplemented by 1× Pen/Strep, 1× Sodium pyruvate, 1× HEPES, 1× GlutaMax™, 55 μM beta-mercaptoethanol in the presence of IL-2 at 500 units/mL. For experiments with Brd9 degradation, Treg cells were treated at day 0 with 2.5 μM dBRD9 (Tocris #6606) and cultured for four days for RNA- and ChIP-seq and 0.16-10 μM treated at day 0 and cultured dBRD9 for four days for Foxp3 MFI, cell viability and cell proliferation assays. Live cells were enriched by Ficoll-Paque® 1.084 (GE Health 17-5446-02) for RNA-seq and ChIP-seq.
# Treg cells were collected and cross-linked first in 3 mM disuccinimidyl glutarate (DSG) in 1×PBS for thirty minutes then in 1% formaldehyde for another ten minutes, both at RT, for chromatin binding protein ChIP or in 1% formaldehyde only for histone modification ChIP. After quenching the excess cross-linker with a final concentration of 125 mM glycine, the cells were washed in 1× PBS, pelleted, flash-frozen in liquid nitrogen, and stored at −80° C. Cell pellets were thawed on ice and incubated in lysis solution (50 mM HEPES-KOH pH 8, 140 mM NaCl, 1 mM EDTA, 10% glycerol, 0.5% NP40, 0.25% Triton X-100) for ten minutes. The isolated nuclei were washed with wash solution (10 mM Tris-HCl pH 8, 1 mM EDTA, 0.5 mM EGTA, 200 mM NaCl) and shearing buffer (0.1% SDS, 1 mM EDTA, 10 mM Tris-HCl pH 8) then sheared in a Covaris® E229 sonicator for ten minutes to generate DNA fragments between ˜200-1000 base pairs (bp). After clarification of insoluble material by centrifugation, the chromatin was immunoprecipitated overnight at 4° C. with antibodies against Foxp3, Smarca4, Brd9, Phf10 or H3K27ac. The next day, the antibody bound DNA was incubated with Protein A+G Dynabeads™ (Invitrogen) in ChIP buffer (50 mM HEPES-KOH pH 7.5, 300 mM NaCl, 1 mM EDTA, 1% Triton X-100, 0.1% DOC, 0.1% SDS), washed and treated with Proteinase K and RNase A. Cross-linking was reversed by incubation at 55° C. for two and a half hours. Purified ChIP DNA was used for library generation (NuGen Ovation® Ultralow Library System V2) according to manufacturer's instructions for subsequent sequencing.
# Single-end 50 bp or paired-end 42 bp reads were aligned to mouse genome mm10 using STAR alignment tool (V2.5) (Dobin et al., Bioinformatics 29:15-21, 2013). ChIP-Seq peaks were called using findPeaks within HOMER using parameters for histone (-style histone) or transcription factor (-style factor) (homer.ucsd.edu/homer/index.html). Peaks were called when enriched >two-fold over input and >four-fold over local tag counts, with FDR 0.001. For histone ChIP, peaks within a 1000 bp range were stitched together to form regions. Differential ChIP peaks were found by merging peaks from control and experiment groups and called using getDiffExpression.pl with fold change ≥1.5 or ≤−1.5, Poisson p value<0.0001.
# [2] = test system: Treg cells; test: In vitro Treg suppression assay; type: cell-based, mouse; conditions: sgRNA transduced Treg cells plus MIGR-Foxp3
# Description: Treg cells were transduced by retrovirus expressing sgRNA targeting gene of interest and cultured in X-VIVO® complete media supplemented with IL-2 (500 U/ml). Four days after transduction, transduced cells were […] a fluorescence-activated cell sorter (FACS). CD45.1+ naive CD4 T cells (CD4^+CD25^−CD44^loCD62^hi) were labeled with CellTrace™ Violet (Thermo Fisher Scientific #C34571) in different ratio in the presence of irradiated T cell depleted spleen cells as antigen-presenting cells (APC). Three days later, Treg suppression function was measured by the percentage of non-dividing cells within the CD45.1^+ effector T cell population. For dBRD9 treatment experiment, dBRD9 was first dissolved in DMSO (10 mM stock) and added into Treg:Teff:APC mixture at 2.5 μM. For Foxp3 overexpression rescue experiment, Treg cells were first transduced with sgNT or sgBrd9 at 24 hour post-activation, and then transduced with MIGR empty vector or MIGR-Foxp3 at 48 hour post-activation. Double transduced Treg cells were FACS sorted on day 4 based on NGFR+ and GFP+ markers and then mixed with CellTrace™ labeled effector T cells in the presence of APC. Treg suppression readout was measured after three days of co-culture.
substance,measurement,setting,value
"sgBrd9: sgRNA targeting Brd9, ATTAACCGGTTTCTCCCGGG (SEQ ID NO: 12) (expressed or natural sequence)",Brd9-dependent sites where binding was not rescued by restoring Foxp3 expression,[1]; sgBrd9 Treg cells plus ectopic Foxp3,~71%
same,Foxp3 binding at CNS2/CNS0,[1]; sgRNA transduced Treg cells,marked reduction of Foxp3 binding at CNS2/CNS0
same,Foxp3 binding with ectopic Foxp3 expression,[1]; sgRNA transduced Treg cells plus MIGR-Foxp3,partially restored Foxp3 binding
same,Foxp3 binding at a subset of Foxp3 sites (Brd9-dependent sites),"[1]; sgRNA transduced Treg cells, FC1.5, Poisson p<0.0001",significantly reduced
same,Treg suppressor activity with ectopic expression of Foxp3,[2],partially restored Treg suppressor activity to a level comparable to sgNT controls
